Results reported in PubChem BioAssay (NCI).
“And” between values parts separate entries of the source, which are not always exact repeats. Identical values can stand only once.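 Where inhibition never reached the appropriate level, the endpoint shown equals the highest concentration tested. Otherwise, values were interpolated linearly from a five-concentration, 48-hour dose response in 96-well plates. Abbreviation: GI50, concentration required for 50% inhibition of growth. Definition used: TGI = concentration required for complete inhibition of growth.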

Tests used:
Assay in all cases: inhibition of tumour cell growth, NCI panel, 48 h
[1] = test system: ACHN renal
[2] = test system: SF-295 CNS
[3] = test system: SW-620 colon
[4] = test system: EKVX NSCLC
[5] = test system: SF-539 CNS
[6] = test system: SN12C renal
[7] = test system: NCI-H23 lung
[8] = test system: 786-0 renal
[9] = test system: LOX IMVI melanoma
[10] = test system: HOP-62 NSCLC

SMILES	GI50 [1] [µM]	TGI [1]	GI50 [2] [µM]	TGI [2] [µM]	GI50 [3] [µM]	TGI [3]	GI50 [4] [µM]	TGI [4] [µM]	GI50 [5] [µM]	TGI [5]	GI50 [6] [µM]	TGI [6]	GI50 [7] [µM]	TGI [7] [µM]	GI50 [8] [µM]	TGI [8]	GI50 [9] [µM]	TGI [9]	GI50 [10] [µM]	TGI [10] [µM]
Cc1c(C(N)=O)sc2c1C(=O)N(Cc1ccccc1)C1=NN=C(c3ccc(Cl)cc3)CN12	3.02	11.6 µM	2.31	14.7	3.99	18.4 µM	4.7	29.8	3.39	11 µM	3.42	15.6 µM	3.86	19.4	2.65	6.92 µM	1.62	10.8 µM	3.62	18.5
CC1CCC(NC(=O)N(CCCl)N=O)CC1 (configuration not stated)	31.6	91.7 µM and 103 µM	53.7	36.3	17.7	37.4 µM and 71.5 µM	–	119	18.9	43.8 µM and 62.3 µM	19.1	41.7 µM and 81.4 µM	61.8	129	13.9	32.4 µM and 64.2 µM	14.7	39.8 µM and 52.6 µM	71.2	93
Fc1ccc2c(c1)C1=NN(c3ccccc3)C(F)C1CO2 (configuration not stated)	8.94	22.7 µM	6.45	17.1	9.95	23.6 µM	5.64	16.4	6.62	14.9 µM	6.93	14.7 µM	11.2	26.7	12.8	> 50 µM	10.5	24.1 µM	19	> 50
COc1cc(C(=O)O[C@H](C(=O)NCCCCCNC(=O)[C@@H](OC(=O)c2cc(OC)cc3c(C)cccc23)[C@]2(C)CO2)[C@]2(C)CO2)c2cccc(C)c2c1	< 0.0143	< 0.0338 µM	2.5	6.75	< 0.0149	> 100 µM	0.635	3.72	0.119	0.587 µM	0.364	1.15 µM	0.179	0.665	< 0.01	0.0115 µM	< 0.01	< 0.0138 µM	< 0.01	0.157
COc1ccc(Br)c(N/N=C2\CCCNC2=O)c1	–	> 100 µM	–	> 100	–	> 100 µM	–	78.6	–	> 100 µM	–	> 100 µM	–	> 100	–	> 100 µM	–	> 100 µM	–	> 100
N#CC(NC12CC3CC(CC(C3)C1)C2)c1ccc2c(c1)OCO2 (configuration not stated)	–	> 100 µM	–	> 100	–	> 100 µM	–	> 100	–	> 100 µM	–	> 100 µM	–	> 100	–	> 100 µM	–	> 100 µM	–	> 100
COc1c(C)c2c(c(O)c1C/C=C(\C)CCC(=O)O)C(=O)OC2	0.457	> 100 µM	0.278	> 100	0.167	> 100 µM	0.892	> 100	0.491	> 100 µM	0.499	> 100 µM	0.282	> 100	0.326	> 100 µM	0.132	> 100 µM	0.512	> 100
COc1cc(/C=C/C(=O)c2cccc(Nc3nc(Nc4ccccc4)nc(Nc4ccccc4)n3)c2)cc(OC)c1OC	24.1	> 100 µM	2.58	–	3.73	> 100 µM	9.94	> 100	12	34 µM	20.7	> 100 µM	6.07	> 100	7.66	43.2 µM	6.32	> 45.1 µM	23.5	> 94.5
COc1ccc(C2=CC(c3ccc4c(c3)OCO4)c3c(c4ccccc4oc3=O)O2)cc1OC (configuration not stated)	–	> 100 µM	–	> 100	–	> 100 µM	–	> 100	–	> 22.5 µM	–	> 100 µM	–	> 100	–	> 100 µM	–	> 100 µM	–	> 100
C=C(C)C(=O)Nc1ccc(NC(C)C)cc1	> 100	> 100 µM	> 100	> 100	> 100	> 100 µM	> 100	> 100	> 100	> 100 µM	> 100	> 100 µM	> 100	> 100	> 100	> 100 µM	> 100	> 100 µM	> 100	> 100
CCS(CC)(CC)CC1CCCC2=CCC(P(=O)(c3ccccc3)c3ccccc3)CC21 (configuration not stated)	–	22.4 µM	–	16.3	–	31.5 µM	–	28.4	–	27.3 µM	–	26.3 µM	–	25.6	–	26.1 µM	–	34.9 µM	–	32
CCC[CH2][Sn]1([CH2]CCC)[O]C(=O)c2cccnc2[O]1	2.14	5.21 µM	3.12	10.4	1.48	3.6 µM	2.54	8.04	1.87	4 µM	2.58	8.79 µM	1.33	2.99	2.62	8.01 µM	1.81	3.51 µM	3.95	20.9
COc1ccc2nc3cccc([N+](=O)[O-])c3c(NCCCCCC(=O)O)c2c1	0.0562	0.582 µM	0.447	4.55	–	0.268 µM	0.297	1.97	0.404	1.44 µM	0.131	1.16 µM	0.952	4.19	0.0799	0.548 µM	0.171	0.487 µM	0.0277	0.187
CN(C)CC/C(=N\Nc1ccc([N+](=O)[O-])cc1)c1ccccc1	–	6.81 µM	–	23.6	–	26.5 µM	–	29.9	–	20.3 µM	–	23.8 µM	–	27.1	–	27.1 µM	–	18.1 µM	–	28.5
